≈ marks a conversion by molar mass, not a printed value.

In assay [1] the test system is Tobacco mosaic virus. Briefly: Antiviral activity against TMV assessed as inactivation effect by measuring inhibition rate at 0.5 mg/ml measured after 72 hrs relative to control. The class given is functional. On the set-up: scale not given: the % may be the effect or the level left.
Assay [2] relates to Tobacco mosaic virus. Briefly: Antiviral activity against TMV assessed as protection effect by measuring inhibition rate at 0.5 mg/ml measured after 72 hrs relative to control. The class given is functional. More on the design: scale not given: the % may be the effect or the level left.
The test system of assay [3] is Tobacco mosaic virus. The experiment in a line: Antiviral activity against TMV assessed as curative effect by measuring inhibition rate at 0.5 mg/ml measured after 72 hrs relative to control. On the set-up: scale not given: the % may be the effect or the level left. The class given is functional.
Assay [4] deals with Staphylococcus aureus. Briefly: Antibacterial activity against Staphylococcus aureus ATCC 25923 assessed as reduction in bacterial growth incubated for 24 hrs by CLSI based Mueller-Hinton broth assay. The class given is functional.
Assay [5] relates to Staphylococcus aureus. Briefly: Antibacterial activity against methicillin-resistant Staphylococcus aureus 15012406 assessed as reduction in bacterial growth incubated for 24 hrs by CLSI based Mueller-Hinton broth assay. The class given is functional.
The subject of assay [6] is Staphylococcus aureus. The experiment in a line: Antibacterial activity against methicillin-resistant Staphylococcus aureus 15019301 assessed as reduction in bacterial growth incubated for 24 hrs by CLSI based Mueller-Hinton broth assay. The class given is functional.
The test system of assay [7] is Staphylococcus aureus. Briefly: Antibacterial activity against methicillin-resistant Staphylococcus aureus 17045463 assessed as reduction in bacterial growth incubated for 24 hrs by CLSI based Mueller-Hinton broth assay. The class given is functional.
Assay [8] concerns Staphylococcus aureus. The experiment in a line: Antibacterial activity against methicillin-resistant Staphylococcus aureus 18032913 assessed as reduction in bacterial growth incubated for 24 hrs by CLSI based Mueller-Hinton broth assay. The class given is functional.
The subject of a further assay is Plasmodium falciparum. Briefly: Antiplasmodial activity against Plasmodium falciparum W2 infected in human erythrocytes assessed as reduction in parasite growth incubated for 48 hrs by YOYO-1 dye based flow cytometric analysis. The class given is functional, organism-based. Particulars: W2, 48 h. (In flow cytometry, cells or beads pass a laser one at a time.)
Assay [9] has as its target Voltage-gated inwardly rectifying potassium channel KCNH2 (Homo sapiens, UniProt Q12809). Briefly: Inhibition of hERG. The class given is toxicity. On the technique in general: The hERG channel carries a current that helps repolarise heart muscle cells.
In assay [10] the test system is Mus musculus. The experiment in a line: Antinociceptive activity in ip dosed mouse assessed as inhibition of acetic acid-induced abdominal constrictions by writhing test at 70 mg/ml relative to control. The class given is functional. More on the design: scale not given: the % may be the effect or the level left. For orientation: Writhing tests count abdominal constrictions after an irritant is injected.

Assay [11] relates to Mus musculus. Briefly: Anti-inflammatory activity in mouse model of xylene-induced auricle edema assessed as inhibition of ear swelling at 70 mg/ml, IG pre-treated for 1 hr followed by xylene addition and measured after 1 hr relative to control. The class given is functional. On the set-up: scale not given: the % may be the effect or the level left. Particulars: time 2 hrs.

For another assay, the system named is HCT-116. The experiment in a line: Anticancer activity against human HCT-116 cells assessed as reduction in cell viability incubated for 72 hrs by MTT assay. The class given is functional, cell-based. Particulars: HCT-116, 72 h.
A further assay concerns ES-2. The experiment in a line: Anticancer activity against human ES2 cells assessed as reduction in cell viability incubated for 72 hrs by Alamar Blue assay. The class given is functional, cell-based. Particulars: ES-2, 72 h.
The subject of the next assay is A549. The experiment in a line: Anticancer activity against human A549 cells assessed as reduction in cell viability incubated for 72 hrs by Alamar Blue assay. The class given is functional, cell-based. The note with it: A549, 72 h.
Another assay concerns HOS. Briefly: Anticancer activity against human HOS cells assessed as reduction in cell viability incubated for 72 hrs by Alamar Blue assay. The class given is functional, cell-based.
The next assay has as its system MDA-MB-231. Briefly: Anticancer activity against human MDA-MB-231 cells assessed as reduction in cell viability incubated for 72 hrs by Alamar Blue assay. The class given is functional, cell-based. The note with it: MDA-MB-231, 72 h.
Another assay deals with A 172. The experiment in a line: Anticancer activity against human A-172 cells assessed as reduction in cell viability incubated for 72 hrs by Alamar Blue assay. The class given is functional, cell-based. The note with it: A 172, 72 h.
In the next assay the test system is HepG2. The experiment in a line: Anticancer activity against human HepG2 cells assessed as reduction in cell viability incubated for 72 hrs by Alamar Blue assay. The class given is functional, cell-based. The note with it: HepG2, 72 h.
Another assay concerns Diutina rugosa. Briefly: Antimicrobial activity Candida rugosa DSM 2031 assessed as reduction in microbial growth incubated for 24 hrs by broth micro dilution method. The class given is functional.
The next assay has as its system Candida parapsilosis. Briefly: Antimicrobial activity Candida parapsilosis ATCC 22019 assessed as reduction in microbial growth incubated for 24 hrs by broth micro dilution method. The class given is functional. The note with it: Lodderomyces parapsilosis.
Another assay has as its system Candida albicans. Briefly: Antimicrobial activity against Candida albicans ATCC 10231 assessed as reduction in microbial growth incubated for 24 hrs by broth micro dilution method. The class given is functional.
In a further assay the test system is Candida tropicalis. Briefly: Antimicrobial activity against Candida tropicalis ATCC 18803 assessed as reduction in microbial growth incubated for 24 hrs by broth micro dilution method. The class given is functional.
The next assay concerns Cryptococcus neoformans. The experiment in a line: Antimicrobial activity Cryptococcus neoformans ATCC 28952 assessed as reduction in microbial growth incubated for 24 hrs by broth micro dilution method. The class given is functional.
Assay [12] in a line: Antimicrobial activity Cryptococcus gattii VGI ATCC 2601 assessed as reduction in microbial growth incubated for 24 hrs by broth micro dilution method. The class given is functional.

Chain of Voltage-gated inwardly rectifying potassium channel KCNH2 (Q12809 whole entry): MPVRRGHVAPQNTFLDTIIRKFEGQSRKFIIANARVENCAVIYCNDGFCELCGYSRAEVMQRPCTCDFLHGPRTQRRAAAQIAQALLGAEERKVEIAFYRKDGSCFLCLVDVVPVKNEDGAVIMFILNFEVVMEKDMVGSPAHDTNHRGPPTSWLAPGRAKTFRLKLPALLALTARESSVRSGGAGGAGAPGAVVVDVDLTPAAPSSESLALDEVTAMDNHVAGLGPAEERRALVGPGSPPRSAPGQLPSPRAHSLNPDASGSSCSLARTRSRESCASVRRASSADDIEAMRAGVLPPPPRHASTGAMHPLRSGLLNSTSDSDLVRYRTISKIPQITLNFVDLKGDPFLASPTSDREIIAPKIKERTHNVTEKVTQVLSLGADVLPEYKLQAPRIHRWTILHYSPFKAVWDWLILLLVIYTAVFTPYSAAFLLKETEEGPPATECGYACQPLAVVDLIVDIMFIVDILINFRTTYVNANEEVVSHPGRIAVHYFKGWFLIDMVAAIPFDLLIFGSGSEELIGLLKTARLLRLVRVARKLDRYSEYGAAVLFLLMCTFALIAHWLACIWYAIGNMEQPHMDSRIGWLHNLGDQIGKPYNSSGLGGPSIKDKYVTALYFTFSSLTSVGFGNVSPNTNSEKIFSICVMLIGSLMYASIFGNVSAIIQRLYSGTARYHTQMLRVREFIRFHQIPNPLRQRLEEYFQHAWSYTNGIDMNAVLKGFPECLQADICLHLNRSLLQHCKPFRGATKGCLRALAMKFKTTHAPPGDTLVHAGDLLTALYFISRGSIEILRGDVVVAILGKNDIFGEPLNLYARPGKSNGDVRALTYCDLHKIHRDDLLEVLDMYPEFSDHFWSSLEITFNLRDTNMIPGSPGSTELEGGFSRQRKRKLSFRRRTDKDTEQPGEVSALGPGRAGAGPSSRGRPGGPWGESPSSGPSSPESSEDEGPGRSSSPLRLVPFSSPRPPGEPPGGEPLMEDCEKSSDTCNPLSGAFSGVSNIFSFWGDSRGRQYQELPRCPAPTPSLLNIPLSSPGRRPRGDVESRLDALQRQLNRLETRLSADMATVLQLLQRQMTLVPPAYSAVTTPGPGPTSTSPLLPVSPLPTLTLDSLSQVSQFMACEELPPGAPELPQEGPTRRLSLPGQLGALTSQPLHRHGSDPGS

Consider `CC1(C)O[C@H]2CC(=O)OC[C@]23[C@H]2CC[C@@]4(C)[C@H](c5ccoc5)OC(=O)[C@H]5O[C@]54[C@]2(C)[C@@H](OC(=O)C/C=C/c2ccccc2)C[C@@H]13`, for which the values for the Activity in the assay with Tobacco mosaic virus [1], in the assay on Tobacco mosaic virus [2] and in the assay with Tobacco mosaic virus [3] were 65.7%, 29.3% and 41.7%, respectively.
What is called MIC50 is an inhibitory concentration at the 50% level, which refers to growth in some studies and to a panel of isolates in others. Regarding `CC(=O)O[C@H](c1ccoc1)[C@@H]1CCC[C@H](C)C1=O`, the MIC50 in the assay on Staphylococcus aureus [4] came out at 12 µg/mL (≈ 47.9 µM); in the assay on Staphylococcus aureus [5], 128 µg/mL (≈ 511 µM); in the assay on Staphylococcus aureus [6] it was 64 µg/mL (≈ 256 µM); in the assay with Staphylococcus aureus [7] it was 128 µg/mL (≈ 511 µM); in the assay with Staphylococcus aureus [8], 64 µg/mL (≈ 256 µM).
What is called IC50 is the midpoint of a concentration-inhibition curve. With `CC(=O)O[C@H]1CC(=O)OC(C)(C)[C@@H]2C[C@@H](OC(C)=O)[C@]3(C)[C@H](CC[C@@]4(C)[C@H](c5ccoc5)OC(=O)[C@H]5O[C@@]534)[C@@]12C`, the concentration for half-maximal inhibition (IC50) with Plasmodium falciparum was 16.5 µM.
Take `CC1(C)OC(=O)C=C[C@]2(C)[C@H]3CC[C@@]4(C)[C@H](c5ccoc5)OC(=O)[C@H]5O[C@]54[C@]3(C)OC(=O)C[C@@H]12`: the Activity was 56.5% in the assay with Tobacco mosaic virus [1], 30% in the assay on Tobacco mosaic virus [2] and 17.5% in the assay on Tobacco mosaic virus [3].
For the compound `CC(=O)O[C@@H](c1ccoc1)[C@@H]1CCC[C@H](C)C1=O`, the MIC50 in the assay on Staphylococcus aureus [4] was determined as 12 µg/mL (≈ 47.9 µM); in the assay with Staphylococcus aureus [5], 128 µg/mL (≈ 511 µM); with Staphylococcus aureus [6], 64 µg/mL (≈ 256 µM); in the assay on Staphylococcus aureus [7], 128 µg/mL (≈ 511 µM); in the assay on Staphylococcus aureus [8], 64 µg/mL (≈ 256 µM).
On to `CC1(C)O[C@H]2CC(=O)OC[C@]23[C@H]2CC[C@@]4(C)[C@H](c5coc(C(=O)CCCCN6CCOCC6)c5)OC(=O)[C@H]5O[C@]54[C@]2(C)C(=O)C[C@@H]13`, for which the half-inhibitory concentration (IC50) in assay [9] is > 100 µM.
Turning to `CC1(C)O[C@H]2CC(=O)OC[C@]23[C@H]2CC[C@@]4(C)[C@H](c5ccoc5)OC(=O)[C@H]5O[C@]54[C@]2(C)[C@@H](NC(=O)CCN2CCOCC2)C[C@@H]13.Cl`, the Activity was found to be 57.35% in the assay on Mus musculus [10] and 58.15% in the assay on Mus musculus [11].
Regarding `CC1(C)O[C@H]2CC(=O)OC[C@]23[C@H]2CC[C@@]4(C)[C@H](c5ccoc5)OC(=O)[C@H]5O[C@]54[C@]2(C)OC(=O)C[C@@H]13`, the Activity in the assay on Tobacco mosaic virus [1] is recorded as 44.8%; in the assay on Tobacco mosaic virus [2], 23.6%; with Tobacco mosaic virus [3], 13.1%.
`CC1(C)O[C@H]2CC(=O)OC[C@]23[C@H]2CC[C@]4(C)C(=CC(=O)O[C@H]4c4coc(C(=O)CCl)c4)[C@]2(C)OC(=O)C[C@@H]13`: the 50% inhibitory concentration (IC50) amounted to 3.28 µM with HCT-116; 3.65 µM in the assay with ES-2; 7.62 µM in the assay with A549; 3.88 µM in the assay on HOS; 5.53 µM in the assay with MDA-MB-231; 1.71 µM with A 172. Also, the IC50 in the assay on HepG2 was 8.45 µM.
Broadly, the MIC is the lowest concentration that inhibits growth of the organism. Regarding `CC1(C)O[C@@H](CC(=O)NCc2cn(Cc3ccc(Br)cc3)nn2)[C@@]2(CO)[C@H]1CC(=O)[C@@]1(C)C3=CC(=O)O[C@@H](c4ccoc4)[C@]3(C)CC[C@@H]12`, the MIC (in the assay with Diutina rugosa; in the assay on Candida parapsilosis; in the assay on Candida albicans; in the assay with Candida tropicalis; in the assay on Cryptococcus neoformans; in [12]) was 34 µM in each case.
`C#CCO[C@H]1C=C(C(C)C)[C@]2(CCCC(=O)O2)[C@H]2CC[C@]3(C)C(=CC(=O)O[C@H]3c3ccoc3)[C@]12C`: the IC50 with HCT-116 came to 1.6 µM; with ES-2 it was 0.58 µM; with A549, 2.59 µM; in the assay with HOS it was 1.61 µM; in the assay with MDA-MB-231, 0.64 µM; with A 172, 0.78 µM. The half-maximal inhibitory concentration (IC50) with HepG2 worked out at 7.1 µM.
Take `CC1(C)O[C@H]2CC(=O)OC[C@@]23[C@H]1C[C@H](NC(=O)CCN1CCOCC1)[C@@]1(C)C2=CC(=O)O[C@@H](c4ccoc4)[C@]2(C)CC[C@@H]13.Cl`: the results for the Activity with Mus musculus [10] and in the assay with Mus musculus [11] were 54.3% and 24.04%, respectively.
In the case of `CC1(C)OC(=O)C=C[C@]2(C)[C@H]3CC[C@@]4(C)[C@H](c5ccoc5)OC(=O)[C@H]5O[C@]54[C@]3(C)C(=O)C[C@@H]12` [OBACUNONE], the results for the Activity in the assay with Tobacco mosaic virus [1], in the assay with Tobacco mosaic virus [2] and in the assay with Tobacco mosaic virus [3] were 35.2%, 21.5% and 7.7%, respectively.
Consider `CC1(C)O[C@H]2CC(=O)OC[C@]23[C@H]2CC[C@@]4(C)[C@H](c5ccoc5)OC(=O)[C@H]5O[C@]54[C@]2(C)C(=O)C[C@@H]13` [LIMONIN], for which the figures for the Activity in the assay with Tobacco mosaic virus [1], in the assay on Tobacco mosaic virus [2] and in the assay with Tobacco mosaic virus [3] were 41.9%, 27.4% and 5.8%, respectively.
Turning to `C[C@H]1CCC[C@@H]([C@H](O)c2ccoc2)C1=O`, the MIC50 in the assay on Staphylococcus aureus [4], with Staphylococcus aureus [5] and in the assay with Staphylococcus aureus [6] was 512 µg/mL (≈ 2460 µM) throughout.
Take `C[C@H]1CCC[C@@H]([C@@H](O)c2ccoc2)C1=O`: the MIC50 in the assay on Staphylococcus aureus [4], in the assay on Staphylococcus aureus [5] and in the assay on Staphylococcus aureus [6] was 512 µg/mL (≈ 2460 µM) in each case.
Regarding `COC(=O)C[C@H](OC(C)=O)[C@]1(C)[C@H]2CC[C@@]3(C)[C@H](c4ccoc4)OC(=O)[C@H]4O[C@]43[C@]2(C)[C@H](OC(C)=O)C[C@H]1C(C)(C)O`, the IC50 in the assay on Plasmodium falciparum is 18.3 µM.
